Patent US12077503B2, “Substituted cyclic amides and their use as herbicides” (FMC CORPORATION, priority 2015, dated 2024)

Tests used:
Assay type in all cases: in vivo
[1] = tested on: ragweed (common ragweed, Ambrosia elatior); assay: Test A postemergence
Source text: (§1) Seeds of plant species selected from barnyardgrass (Echinochloa crus-galli), Kochia (Kochia scoparia), ragweed (common ragweed, Ambrosia elatior), ryegrass, Italian (Italian ryegrass, Lolium multiflorum), crabgrass, large (Digitaria sanguinalis), giant foxtail (Setaria faberii), green foxtail (Setaria viridis), morningglory (Ipomoea spp.), pigweed (Amaranthus retroflexus), velvetleaf (Abutilon theophrasti), wheat (Triticum aestivum), and corn (Zea mays) were planted into a blend of loam soil and sand and treated preemergence with a directed soil spray using test chemicals formulated in anon-phytotoxic solvent mixture which included a surfactant.
(§2) At the same time, plants selected from these crop and weed species and also blackgrass (Alopecurus myosuroides), and Galium (catchweed bedstraw, Galium aparine) were planted in pots containing the same blend of loam soil and sand and treated with postemergence applications of test chemicals formulated in the same manner. Plants ranged in height from 2 to 10 cm and were in the one- to two-leaf stage for the postemergence treatment. Treated plants and untreated controls were maintained in a greenhouse for approximately 10 d, after which time all treated plants were compared to untreated controls and visually evaluated for injury. Plant response ratings, summarized in Table A, are based on a 0 to 100 scale where 0 is no effect and 100 is complete control. A dash (-) response means no test result.

[2] = tested on: wheat (Triticum aestivum); assay: Test A postemergence
Source text: as §1, §2

[3] = tested on: giant foxtail (Setaria faberii); assay: Test A postemergence
Source text: as §1, §2

[4] = tested on: Galium (catchweed bedstraw, Galium aparine); assay: Test A postemergence
Source text: as §1, §2

[5] = tested on: ryegrass, Italian (Italian ryegrass, Lolium multiflorum); assay: Test A postemergence
Source text: as §1, §2

[6] = tested on: blackgrass (Alopecurus myosuroides); assay: Test A postemergence
Source text: as §1, §2

corn (Zea mays) = assay: Test A postemergence
Source text: as §1, §2

[7] = tested on: pigweed (Amaranthus retroflexus); assay: Test A postemergence
Source text: as §1, §2

[8] = tested on: barnyardgrass (Echinochloa crus-galli); assay: Test A postemergence
Source text: as §1, §2

Kochia (Kochia scoparia) [9] = assay: Test A postemergence
Source text: as §1, §2

[10] = tested on: ragweed (common ragweed, Ambrosia elatior); assay: Test A preemergence; settings: for Plant response rating, Ragweed: 125 g ai/ha; for Ragweed plant response rating (0 to 100 scale, 0 is no effect, 100 is complete control): 500 g ai/ha, visual injury approx. 10 d
Source text: as §1, §2

[11] = tested on: giant foxtail (Setaria faberii); assay: Test A preemergence; settings: for Plant response rating, Foxtail, Giant: 125 g ai/ha; for Foxtail, Giant plant response rating (0 to 100 scale, 0 is no effect, 100 is complete control): 500 g ai/ha, visual injury approx. 10 d
Source text: as §1, §2

[12] = tested on: ryegrass, Italian (Italian ryegrass, Lolium multiflorum); assay: Test A preemergence; settings: for Plant response rating, Ryegrass, Italian: 125 g ai/ha; for Ryegrass, Italian plant response rating (0 to 100 scale, 0 is no effect, 100 is complete control): 500 g ai/ha, visual injury approx. 10 d
Source text: as §1, §2

[13] = tested on: pigweed (Amaranthus retroflexus); assay: Test A preemergence; settings: for Plant response rating, Pigweed: 125 g ai/ha; for Pigweed plant response rating (0 to 100 scale, 0 is no effect, 100 is complete control): 500 g ai/ha, visual injury approx. 10 d
Source text: as §1, §2

[14] = tested on: barnyardgrass (Echinochloa crus-galli); assay: Test A preemergence; settings: for Plant response rating, Barnyardgrass: 125 g ai/ha; for Barnyardgrass plant response rating (0 to 100 scale, 0 is no effect, 100 is complete control): 500 g ai/ha, visual injury approx. 10 d
Source text: as §1, §2

Kochia (Kochia scoparia) [15] = assay: Test A preemergence; settings: for Plant response rating, Kochia: 125 g ai/ha; for Kochia plant response rating (0 to 100 scale, 0 is no effect, 100 is complete control): 500 g ai/ha, visual injury approx. 10 d
Source text: as §1, §2

[16] = 125 g ai/ha, postemergence, visual rating after approx. 10 d, 0 to 100 scale (0 no effect, 100 complete control)
[17] = Postemergence, 500 g ai/ha, 0 to 100 scale where 0 is no effect and 100 is complete control
[18] = Preemergence, visual injury after approximately 10 d, 0 to 100 scale where 0 is no effect and 100 is complete control
[19] = 125 g ai/ha, postemergence, visual injury rating on 0 to 100 scale (0 no effect, 100 complete control), approx. 10 d
[20] = 500 g ai/ha, postemergence, 0 to 100 scale, 0 no effect, 100 complete control
[21] = preemergence, 0 to 100 scale (0 no effect, 100 complete control)

## CN1CC(c2ccc(OC(F)F)cc2)C(C(=O)Nc2cccc(F)c2F)C1=O (centres unmarked) [Compound 562]
[1]; [16]
  Plant response rating, Ragweed: 50
[1]; [17]
  Plant response rating, Ragweed: 60
[2]; [16]
  Plant response rating, Wheat: 50
[2]; [17]
  Plant response rating, Wheat: 80
[3]; [16]
  Plant response rating, Foxtail, Giant: 90
[3]; [17]
  Plant response rating, Foxtail, Giant: 90
[4]; [16]
  Plant response rating, Galium: 60
[4]; [17]
  Plant response rating, Galium: 70
[5]; [16]
  Plant response rating, Ryegrass, Italian: 70
[5]; [17]
  Plant response rating, Ryegrass, Italian: 80
[6]; [16]
  Plant response rating, Blackgrass: 60
[6]; [17]
  Plant response rating, Blackgrass: 70
Corn (Zea mays); [16]
  Plant response rating, Corn: 40
Corn (Zea mays); [17]
  Plant response rating, Corn: 80
[7]; [16]
  Plant response rating, Pigweed: 70
[7]; [17]
  Plant response rating, Pigweed: 80
[8]; [16]
  Plant response rating, Barnyardgrass: 90
[8]; [17]
  Plant response rating, Barnyardgrass: 90
Kochia (Kochia scoparia) [9]; [16]
  Plant response rating, Kochia: 70
Kochia (Kochia scoparia) [9]; [17]
  Plant response rating, Kochia: 80
[10]; [18]
  Plant response rating, Ragweed: 70
[10]; Preemergence
  Ragweed plant response rating (0 to 100 scale, 0 is no effect, 100 is complete control): 80
[11]; [18]
  Plant response rating, Foxtail, Giant: 90
[11]; Preemergence
  Foxtail, Giant plant response rating (0 to 100 scale, 0 is no effect, 100 is complete control): 90
[12]; [18]
  Plant response rating, Ryegrass, Italian: 60
[12]; Preemergence
  Ryegrass, Italian plant response rating (0 to 100 scale, 0 is no effect, 100 is complete control): 90
[13]; [18]
  Plant response rating, Pigweed: 90
[13]; Preemergence
  Pigweed plant response rating (0 to 100 scale, 0 is no effect, 100 is complete control): 90
[14]; [18]
  Plant response rating, Barnyardgrass: 90
[14]; Preemergence
  Barnyardgrass plant response rating (0 to 100 scale, 0 is no effect, 100 is complete control): 90
Kochia (Kochia scoparia) [15]; [18]
  Plant response rating, Kochia: 70
Kochia (Kochia scoparia) [15]; Preemergence
  Kochia plant response rating (0 to 100 scale, 0 is no effect, 100 is complete control): 90

## CC(=O)c1ccccc1NC(=O)C1C(=O)NCC1c1ccc(F)c(F)c1 (centres unmarked) [Compound 418]
[1]; [19]
  Ragweed plant response rating: 0
[1]; [20]
  Plant response rating, Ragweed: 0
[2]; [19]
  Wheat plant response rating: 0
[2]; [20]
  Plant response rating, Wheat: 0
[3]; [19]
  Foxtail, Giant plant response rating: 0
[3]; [20]
  Plant response rating, Foxtail, Giant: 0
[4]; [19]
  Galium plant response rating: 0
[4]; [20]
  Plant response rating, Galium: 0
[5]; [19]
  Ryegrass, Italian plant response rating: 0
[5]; [20]
  Plant response rating, Ryegrass, Italian: 0
[6]; [19]
  Blackgrass plant response rating: 0
[6]; [20]
  Plant response rating, Blackgrass: 0
Corn (Zea mays); [19]
  Corn plant response rating: 0
Corn (Zea mays); [20]
  Plant response rating, Corn: 0
[7]; [19]
  Pigweed plant response rating: 0
[7]; [20]
  Plant response rating, Pigweed: 0
[8]; [19]
  Barnyardgrass plant response rating: 0
[8]; [20]
  Plant response rating, Barnyardgrass: 0
Kochia (Kochia scoparia) [9]; [19]
  Kochia plant response rating: 0
Kochia (Kochia scoparia) [9]; [20]
  Plant response rating, Kochia: 0
[10]; [21]
  Plant response rating, Ragweed: 0
[10]; Preemergence
  Ragweed plant response rating (0 to 100 scale, 0 is no effect, 100 is complete control): 0
[11]; [21]
  Plant response rating, Foxtail, Giant: 0
[11]; Preemergence
  Foxtail, Giant plant response rating (0 to 100 scale, 0 is no effect, 100 is complete control): 0
[12]; [21]
  Plant response rating, Ryegrass, Italian: 0
[12]; Preemergence
  Ryegrass, Italian plant response rating (0 to 100 scale, 0 is no effect, 100 is complete control): 0
[13]; [21]
  Plant response rating, Pigweed: 0
[13]; Preemergence
  Pigweed plant response rating (0 to 100 scale, 0 is no effect, 100 is complete control): 0
[14]; [21]
  Plant response rating, Barnyardgrass: 0
[14]; Preemergence
  Barnyardgrass plant response rating (0 to 100 scale, 0 is no effect, 100 is complete control): 0
Kochia (Kochia scoparia) [15]; [21]
  Plant response rating, Kochia: 0
Kochia (Kochia scoparia) [15]; Preemergence
  Kochia plant response rating (0 to 100 scale, 0 is no effect, 100 is complete control): 0

## CCc1cccc(C2CN(C)C(=O)C2C(=O)Nc2cccc(F)c2F)c1 (centres unmarked) [Compound 568]
[1]; [16]
  Plant response rating, Ragweed: 30
[1]; [17]
  Plant response rating, Ragweed: 30
[2]; [16]
  Plant response rating, Wheat: 30
[2]; [17]
  Plant response rating, Wheat: 70
[3]; [16]
  Plant response rating, Foxtail, Giant: 90
[3]; [17]
  Plant response rating, Foxtail, Giant: 90
[4]; [16]
  Plant response rating, Galium: 60
[4]; [17]
  Plant response rating, Galium: 60
[5]; [16]
  Plant response rating, Ryegrass, Italian: 70
[5]; [17]
  Plant response rating, Ryegrass, Italian: 90
[6]; [16]
  Plant response rating, Blackgrass: 60
[6]; [17]
  Plant response rating, Blackgrass: 90
Corn (Zea mays); [16]
  Plant response rating, Corn: 60
Corn (Zea mays); [17]
  Plant response rating, Corn: 90
[7]; [16]
  Plant response rating, Pigweed: 30
[7]; [17]
  Plant response rating, Pigweed: 60
[8]; [16]
  Plant response rating, Barnyardgrass: 100
[8]; [17]
  Plant response rating, Barnyardgrass: 100
Kochia (Kochia scoparia) [9]; [16]
  Plant response rating, Kochia: 70
Kochia (Kochia scoparia) [9]; [17]
  Plant response rating, Kochia: 70
[10]; [18]
  Plant response rating, Ragweed: 20
[10]; Preemergence
  Ragweed plant response rating (0 to 100 scale, 0 is no effect, 100 is complete control): 50
[11]; [18]
  Plant response rating, Foxtail, Giant: 100
[11]; Preemergence
  Foxtail, Giant plant response rating (0 to 100 scale, 0 is no effect, 100 is complete control): 100
[12]; [18]
  Plant response rating, Ryegrass, Italian: 70
[12]; Preemergence
  Ryegrass, Italian plant response rating (0 to 100 scale, 0 is no effect, 100 is complete control): 100
[13]; [18]
  Plant response rating, Pigweed: 30
[13]; Preemergence
  Pigweed plant response rating (0 to 100 scale, 0 is no effect, 100 is complete control): 60
[14]; [18]
  Plant response rating, Barnyardgrass: 90
[14]; Preemergence
  Barnyardgrass plant response rating (0 to 100 scale, 0 is no effect, 100 is complete control): 100
Kochia (Kochia scoparia) [15]; [18]
  Plant response rating, Kochia: 70
Kochia (Kochia scoparia) [15]; Preemergence
  Kochia plant response rating (0 to 100 scale, 0 is no effect, 100 is complete control): 80

## CCc1cccc(C2CN(C)C(=O)C2C(=O)Nc2ccccc2S(C)(=O)=O)c1 (centres unmarked) [Compound 569]
[1]; [16]
  Plant response rating, Ragweed: 30
[1]; [17]
  Plant response rating, Ragweed: 60
[2]; [16]
  Plant response rating, Wheat: 30
[2]; [17]
  Plant response rating, Wheat: 70
[3]; [16]
  Plant response rating, Foxtail, Giant: 90
[3]; [17]
  Plant response rating, Foxtail, Giant: 90
[4]; [16]
  Plant response rating, Galium: 40
[4]; [17]
  Plant response rating, Galium: 60
[5]; [16]
  Plant response rating, Ryegrass, Italian: 40
[5]; [17]
  Plant response rating, Ryegrass, Italian: 60
[6]; [16]
  Plant response rating, Blackgrass: 60
[6]; [17]
  Plant response rating, Blackgrass: 80
Corn (Zea mays); [16]
  Plant response rating, Corn: 20
Corn (Zea mays); [17]
  Plant response rating, Corn: 60
[7]; [16]
  Plant response rating, Pigweed: 0
[7]; [17]
  Plant response rating, Pigweed: 50
[8]; [16]
  Plant response rating, Barnyardgrass: 90
[8]; [17]
  Plant response rating, Barnyardgrass: 90
Kochia (Kochia scoparia) [9]; [16]
  Plant response rating, Kochia: 20
Kochia (Kochia scoparia) [9]; [17]
  Plant response rating, Kochia: 50
[10]; [18]
  Plant response rating, Ragweed: 60
[10]; Preemergence
  Ragweed plant response rating (0 to 100 scale, 0 is no effect, 100 is complete control): 70
[11]; [18]
  Plant response rating, Foxtail, Giant: 100
[11]; Preemergence
  Foxtail, Giant plant response rating (0 to 100 scale, 0 is no effect, 100 is complete control): 100
[12]; [18]
  Plant response rating, Ryegrass, Italian: 30
[12]; Preemergence
  Ryegrass, Italian plant response rating (0 to 100 scale, 0 is no effect, 100 is complete control): 70
[13]; [18]
  Plant response rating, Pigweed: 50
[13]; Preemergence
  Pigweed plant response rating (0 to 100 scale, 0 is no effect, 100 is complete control): 80
[14]; [18]
  Plant response rating, Barnyardgrass: 90
[14]; Preemergence
  Barnyardgrass plant response rating (0 to 100 scale, 0 is no effect, 100 is complete control): 100
Kochia (Kochia scoparia) [15]; [18]
  Plant response rating, Kochia: 60
Kochia (Kochia scoparia) [15]; Preemergence
  Kochia plant response rating (0 to 100 scale, 0 is no effect, 100 is complete control): 90
